Source: ChEMBL document CHEMBL1142756, “Total synthesis and antiangiogenic activity of cyclopentane analogues of fumagillol” (Bioorg Med Chem Lett, 2005)
Converted amounts (≈) assume the structure as drawn.

Tests used:
Type in all cases: functional, cell-based
[1] = Inhibitory concentration against Calf pulmonary artery endothelial cells (CPAE) measured for endothelial cell proliferation activity; details: Bos taurus
P388 = assay: Inhibitory concentration against Murine leukemia P388 measured for endothelial cell proliferation activity; details: Mus musculus
[2] = Inhibitory concentration against Lymphoma EC4 cells measured for endothelial cell proliferation activity; details: Homo sapiens

IC50 (P388) [µg/mL] | Compound | IC50 [1] [µg/mL] | IC50 [2] [µg/mL]
≥ 10 | CO[C@@H]1[C@H](OC(=O)/C=C/C=C/C=C/C=C/C(=O)O)CC[C@]2(CO2)[C@H]1[C@@]1(C)OC1CC=C(C)C (single isomer, unassigned) [FUMAGILLIN] | 0.003 (≈ 0.00654 µM) | 0.0016 (≈ 0.00349 µM)
≥ 10 | CO[C@@H]1[C@H](OC(=O)NC(=O)CCl)C[C@]2(CO2)[C@H]1[C@]1(C)O[C@H]1CCC(C)C | 0.57 (≈ 1.46 µM) | 1.1 (≈ 2.82 µM)
≥ 10 | CO[C@@H]1[C@H](OC(=O)NC(=O)CCl)C[C@]2(CO2)[C@H]1[C@@]1(C)O[C@@H]1CCC(C)C | 0.088 (≈ 0.226 µM) | 0.3 (≈ 0.769 µM)

Compound | IC50 (P388) [µg/mL] | IC50 [1] [µg/mL] | IC50 [2] [µg/mL]
CO[C@@H]1[C@H](OC(=O)NC(=O)CCl)CC[C@]2(CO2)[C@H]1[C@@]1(C)OC1CC=C(C)C (single isomer, unassigned) [O-CHLOROACETYLCARBAMOYLFUMAGILLOL] | ≥ 10 | 0.0002 (≈ 0.000498 µM) | 0.0038 (≈ 0.00946 µM)
